Reference: patent publication US20260184707A1, “PHARMACEUTICAL COMPOUNDS FOR THE TREATMENT OF COMPLEMENT MEDIATED DISORDERS” (ALEXION PHARMACEUTICALS, INC., priority 2022, published 2026)

The compounds below were run against T1, Human complement C1s enzyme (Homo sapiens, UniProt P09871) (assay: Human C1s enzyme assay). Conditions: human complement C1s enzyme 1.16 nM, substrate Z-L-Lys-SBzl, A405; read-out: IC50 (Stars).
T1 construct: purified from human serum, Complement Technology, Inc; purchased Complement Technology, Inc; host or cells: human serum (plasma-derived native protein)
T1 sequence (P09871 438-688 limits assumed): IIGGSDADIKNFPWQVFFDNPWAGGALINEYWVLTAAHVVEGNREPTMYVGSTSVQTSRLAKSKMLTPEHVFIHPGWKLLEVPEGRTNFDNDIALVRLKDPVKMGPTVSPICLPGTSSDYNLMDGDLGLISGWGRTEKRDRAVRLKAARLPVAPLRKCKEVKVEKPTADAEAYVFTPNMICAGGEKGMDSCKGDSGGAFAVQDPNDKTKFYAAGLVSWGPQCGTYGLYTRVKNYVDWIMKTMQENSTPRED
T1 sequence (P09871 16-437 partner limits assumed): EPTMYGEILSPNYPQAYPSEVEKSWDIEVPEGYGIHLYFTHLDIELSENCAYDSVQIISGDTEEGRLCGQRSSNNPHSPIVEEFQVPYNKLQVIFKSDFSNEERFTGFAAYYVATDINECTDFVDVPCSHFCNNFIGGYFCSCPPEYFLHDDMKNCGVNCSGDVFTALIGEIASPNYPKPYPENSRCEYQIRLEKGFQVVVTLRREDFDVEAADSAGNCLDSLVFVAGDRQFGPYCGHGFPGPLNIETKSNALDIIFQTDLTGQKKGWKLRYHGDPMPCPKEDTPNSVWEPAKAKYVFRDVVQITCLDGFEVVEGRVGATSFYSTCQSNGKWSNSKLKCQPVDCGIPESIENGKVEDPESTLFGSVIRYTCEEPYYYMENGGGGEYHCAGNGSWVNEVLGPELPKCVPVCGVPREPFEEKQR
Assay type: biochemical
Procedure, shortened: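 Thioesterase activity followed colorimetrically (DTNB, A405, 30-s reads) using 100 μM Z-L-Lys-SBzl substrate. Enzyme, human serum-derived C1s at 1.16 nM final, was incubated with test compound for 5 min, room temperature, pH 7.5 Tris buffer with 1 M NaCl. Rate-versus-concentration data fitted by nonlinear regression for IC50.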

**Q.** `C[C@@H](Nc1cnc(N2CCCCCC2)n(CC(=O)NCc2cc3cnccc3[nH]2)c1=O)c1ccc2oc3ccccc3c2c1` [Compound 388, (R)-N-((1H-pyrrolo[3,2-c]pyridin-2-yl)methyl)-2-(2-(azepan-1-yl)-5-((1-(dibenzo [b,d]furan-2-yl)ethyl)amino)-6-oxopyrimidin-1(6H)-yl)-acetamide] was tested. Which IC50 did it give?
**A.** 100 to 1000 nM

**Q.** `C[C@@H](Nc1cnc(N2CCC(F)(F)C2)n(CC(=O)NCc2cc3cnccc3[nH]2)c1=O)c1ccc2oc3ccccc3c2c1` [Compound 401, (R)-N-((1H-pyrrolo[3,2-c]pyridin-2-yl)methyl)-2-(5-((1-(dibenzo[b,d]furan-2-yl)ethyl)-amino)-2-(3,3-difluoropyrroli-din-1-yl)-6-oxopyrimidin-1(6H)-yl)acetamide] was tested. Which IC50 did it give?
**A.** 100 to 1000 nM

**Q.** `CO[C@@H]1CO[C@H]2[C@@H]1OC[C@H]2Oc1ccc(-c2ncc(NC(=O)c3cnc(-c4ccccc4)s3)c(=O)n2CC(=O)NCc2cc3cnccc3[nH]2)cc1` [Compound 262, N-(1-(2-(((1H-pyrrolo[3,2-c]pyridine-2-yl)methyl)amino)-2-oxoethyl)-2-(4-(((3R,3aR,6R,6aR)-6-methoxyhexahydrofuro[3,2-b]furan-3-yl)oxy)phenyl)-6-oxo-1,6-dihydropyrimidin-5-yl)-2-phenylthiazole-5-carboxamide] was tested. Which IC50 did it give?
**A.** < 100 nM

**Q.** Which IC50 does the source give for `O=C(Cn1c(N2CCOCC2)ncc(NCCCc2ccccc2)c1=O)NCc1cc2cnccc2[nH]1` [Compound 412, N-((1H-pyrrolo[3,2-c]pyridine-2-yl)methyl)-2-(2-morpholino-6-oxo-5-((3-phenylpropyl)amino)pyrimidin-1(6H)-yl)acetamide] here?
**A.** < 100 nM

**Q.** Which IC50 does the source give for `O=C(Cn1c(-c2ccccc2)ncc(NC(=O)c2coc(-c3ccccc3)n2)c1=O)NCc1cc2cnccc2[nH]1` [Compound 111, N-(1-(2-(((1H-pyrrolo[3,2-c]pyridin-2-yl)methyl)amino)-2-oxoethyl)-6-oxo-2-phenyl-1,6-dihydropyrimidin-5-yl)-2-phenyloxazole-4-carboxamide] here?
**A.** < 100 nM

**Q.** Which IC50 does the source give for `O=C(Cn1c(-c2ccc(OC(F)(F)F)cc2)ncc(NCc2ccc3oc4ccccc4c3c2)c1=O)NCc1cc2cnccc2[nH]1` [Compound 136, N-((1H-pyrrolo[3,2-c]pyridin-2-yl)methyl)-2-(5-((dibenzo [b,d]furan-2-ylmethyl)amino)-6-oxo-2-(4-(trifluoromethoxy)-phenyl)pyrimidin-1(6H)-yl)-acetamide] here?
**A.** < 100 nM

**Q.** `C[C@@H](Nc1cncn(CC(=O)NCc2cc3cnccc3[nH]2)c1=O)c1ccc2c(c1)-c1ccccc1C2(F)F` [Compound 346, (R)-N-((1H-pyrrolo[3,2-c]pyridin-2-yl)methyl)-2-(5-((1-(9,9-difluoro-9H-fluoren-3-yl)-ethyl)amino)-6-oxopyrimidin-1(6H)-yl)acetamide] was tested. Which IC50 did it give?
**A.** 100 to 1000 nM

**Q.** `C[C@@H](Nc1ncc(-c2nccs2)n(CC(=O)NCc2cc3cnccc3[nH]2)c1=O)c1ccc2oc3ccccc3c2c1` [Compound 431, (R)-N-((1H-pyrrolo[3,2-c]pyridin-2-yl)methyl)-2-(3-((1-(dibenzo[b,d]furan-2-yl)ethyl)-amino)-2-oxo-6-(thiazol-2-yl)-pyrazin-1(2H)-yl)acetamide] was tested. Which IC50 did it give?
**A.** < 100 nM

**Q.** `C[C@H](Nc1ncc(-c2ccccc2)n(CC(=O)NCc2cc3cnccc3[nH]2)c1=O)c1ccc2oc3ccccc3c2c1` [Compound 282, (S)—N-((1H-pyrrolo[3,2-c]pyridine-2-yl)methyl)-2-(3-((1-(dibenzo[b,d]furan-2-yl)ethyl)amino)-2-oxo-6-phenylpyrazin-1(2H)-yl)acetamide] was tested. Which IC50 did it give?
**A.** < 100 nM

**Q.** Which IC50 does the source give for `O=C(Cn1c(-c2ccccc2)ncc(Nc2cccc(-c3ccc(F)cc3)c2)c1=O)NCc1cc2cnccc2[nH]1` [Compound 236, N-((1H-pyrrolo[3,2-c]pyridin-2-yl)methyl)-2-(5-((4′-fluoro-[1,1′-biphenyl]-3-yl)amino)-6-oxo-2-phenylpyrimidin-1(6H)-yl)acetamide] here?
**A.** < 100 nM

**Q.** With `O=C(Cn1c(-c2ccccc2)ncc(NCCCc2ccc(C3(F)COC3)cc2)c1=O)NCc1cc2cnccc2[nH]1` [Compound 116, N-((1H-pyrrolo[3,2-c]pyridine-2-yl)methyl)-2-(5-((3-(4-(3-fluorooxetan-3-yl)phenyl)propyl)amino)-6-oxo-2-phenylpyrimidin-1(6H)-yl)acetamide] as the compound, how does the IC50 read?
**A.** < 100 nM

**Q.** For `O=C(Cn1c(-c2ccccc2)ncc(NC(=O)CCCc2ccc(Oc3ccccc3)cc2)c1=O)NCc1cc2cnccc2[nH]1` [Compound 18, N-(1-(2-(((1H-pyrrolo[3,2-c]pyridin-2-yl)methyl)amino)-2-oxoethyl)-6-oxo-2-phenyl-1,6-dihydropyrimidin-5-yl)-4-(4-phenoxyphenyl)butanamide], which IC50 is on record?
**A.** < 100 nM

**Q.** `COc1ccccc1-c1ccc(C(=O)Nc2cnc(-c3ccccc3)n(CC(=O)NCc3cc4cnccc4[nH]3)c2=O)cc1` [Compound 213, N-(1-(2-(((1H-pyrrolo[3,2-c]pyridin-2-yl)methyl)amino)-2-oxoethyl)-6-oxo-2-phenyl-1,6-dihydropyrimidin-5-yl)-2′-methoxy-[1,1′-biphenyl]-4-carboxamide] was tested. Which IC50 did it give?
**A.** < 100 nM

**Q.** `O=C(Cn1c(-c2ccccc2)ncc(NCCCc2ccc(OC(F)(F)F)cc2)c1=O)NCc1cc2cnccc2[nH]1` [Compound 39, N-((1H-pyrrolo[3,2-c]pyridin-2-yl)methyl)-2-(6-oxo-2-phen-yl-5-((3-(4-(trifluoromethoxy)-phenyl)propyl)amino)pyrimi-din-1(6H)-yl)acetamide] was tested. Which IC50 did it give?
**A.** < 100 nM

**Q.** `C[C@@H](Nc1cnc(N2CCCCC2)n(CC(=O)NCc2cc3cnccc3[nH]2)c1=O)c1ccc(-c2ccccc2)s1` [Compound 445, (R)—N-((1H-Pyrrolo[3,2-c]pyridine-2-yl)methyl)-2-(6-oxo-5-((1-(5-phenylthiophen-2-yl)ethyl)amino)-2-(piperidin-1-yl)pyrimidin-1(6H)-yl)acetamide] was tested. Which IC50 did it give?
**A.** < 100 nM

**Q.** Which IC50 does the source give for `O=C(Cn1c(-c2ccccc2)ncc(NCCNC(=O)c2ccc(Oc3ccccc3)cc2)c1=O)NCc1cc2cnccc2[nH]1` [Compound 33, N-(2-((1-(2-(((1H-pyrrolo[3,2-c]pyridin-2-yl)methyl)amino)-2-oxoethyl)-6-oxo-2-phenyl-1,6-dihydropyrimidin-5-yl)amino)ethyl)-4-phenoxybenzamide] here?
**A.** < 100 nM

**Q.** For `C[C@@H](Nc1ncc(-c2ccccn2)n(CC(=O)NCc2cc3cnccc3[nH]2)c1=O)c1ccc2oc3ccccc3c2c1` [Compound 430, (R)-N-((1H-pyrrolo[3,2-c]pyridin-2-yl)methyl)-2-(3-((1-(dibenzo[b,d]furan-2-yl)ethyl)-amino)-2-oxo-6-(pyridin-2-yl)-pyrazin-1(2H)-yl)acetamide], which IC50 is on record?
**A.** < 100 nM

**Q.** `O=C(Cn1c(N2CCCCC2)ncc(NCc2ccc3oc4ccccc4c3c2)c1=O)NCc1cc2cnccc2[nH]1` [Compound 261, N-((1H-pyrrolo[3,2-c]pyridin-2-yl)methyl)-2-(5-((dibenzo [b,d]furan-2-ylmethyl)amino)-6-oxo-2-(piperidin-1-yl)pyrimi-din-1(6H)-yl)acetamide] was tested. Which IC50 did it give?
**A.** < 100 nM

**Q.** With `O=C(NCCn1c(-c2ccccc2)ncc(NCc2ccc3oc4ccccc4c3c2)c1=O)c1cc2cnccc2[nH]1` [Compound 267, N-(2-(5-((dibenzo[b,d]furan-2-ylmethyl)amino)-6-oxo-2-phenylpyrimidin-1(6H)-yl)-ethyl)-1H-pyrrolo[3,2-c]pyr-idine-2-carboxamide] as the compound, how does the IC50 read?
**A.** > 1000 nM

**Q.** For `C[C@@H](Nc1cnc(N2CC3(C2)CC(F)(F)C3)n(CC(=O)NCc2cc3cnccc3[nH]2)c1=O)c1ccc2oc3ccccc3c2c1` [Compound 374, (R)-N-((1H-pyrrolo[3,2-c]pyridin-2-yl)methyl)-2-(5-((1-(dibenzo[b,d]furan-2-yl)ethyl)-amino)-2-(6,6-difluoro-2-aza-spiro[3.3]heptan-2-yl)-6-oxo-pyrimidin-1(6H)-yl)acetamide], which IC50 is on record?
**A.** > 1000 nM

**Q.** With `C[C@@H](Nc1cnc(-c2ccccc2)n(CC(=O)NCc2cc3cnccc3[nH]2)c1=O)c1coc(-c2ccccc2)n1` [Compound 347, (R)-N-((1H-pyrrolo[3,2-c]pyridin-2-yl)methyl)-2-(6-oxo-2-phenyl-5-((1-(2-phenyloxa-zol-4-yl)ethyl)amino)pyrimi-din-1(6H)-yl)acetamide] as the compound, how does the IC50 read?
**A.** < 100 nM

**Q.** For `C[C@@H](Nc1cnc(-c2ncco2)n(CC(=O)NCc2cc3cnccc3[nH]2)c1=O)c1ccc2oc3ccccc3c2c1` [Compound 320, (R)-N-((1H-pyrrolo[3,2-c]pyridin-2-yl)methyl)-2-(5-((1-(dibenzo[b,d]furan-2-yl)ethyl)-amino)-2-(oxazol-2-yl)-6-oxo-pyrimidin-1(6H)-yl)acetamide], which IC50 is on record?
**A.** < 100 nM

**Q.** With `O=C(Cn1c(-c2ccccc2)ncc(NC(=O)Cc2ccccc2)c1=O)NCc1cc2cnccc2[nH]1` [Compound 24, N-((1H-pyrrolo[3,2-c]pyridin-2-yl)methyl)-2-(6-oxo-2-phen-yl-5-(2-phenylacetamido)pyr-imidin-1(6H)-yl)acetamide] as the compound, how does the IC50 read?
**A.** < 100 nM
